According to ChEMBL document CHEMBL1671741, “The development of ciprofloxacin resistance in Pseudomonas aeruginosa involves multiple response stages and multiple proteins” (2010):
Converted amounts (≈) assume the structure as drawn. The source made the active and inactive calls. No cut-off for these calls is given here.

Legend:
Pseudomonas aeruginosa [1] = experiment: Antibacterial activity against Pseudomonas aeruginosa PAO1 harboring mmsA::ISphoA/haha mutation by Etest; format: functional
Pseudomonas aeruginosa [2] = experiment: Antibacterial activity against wild type Pseudomonas aeruginosa PAO1 assessed as viable bacterial count by Etest; format: functional
Pseudomonas aeruginosa [3] = experiment: Antibacterial activity against Pseudomonas aeruginosa PAO1 harboring gatA::ISphoA/haha mutation by Etest; format: functional
Pseudomonas aeruginosa [4] = experiment: Antibacterial activity against Pseudomonas aeruginosa PAO1 harboring gabD::ISphoA/haha mutation by Etest; format: functional
Pseudomonas aeruginosa [5] = experiment: Antibacterial activity against Pseudomonas aeruginosa PAO1 harboring yaaA::ISphoA/haha mutation by Etest; format: functional
Pseudomonas aeruginosa [6] = experiment: Antibacterial activity against Pseudomonas aeruginosa PAO1 harboring gabD::ISlacZ/haha mutation by Etest; format: functional
Pseudomonas aeruginosa [7] = experiment: Antibacterial activity against Pseudomonas aeruginosa PAO1 harboring phoU::ISphoA/haha mutation by Etest; format: functional
Pseudomonas aeruginosa [8] = experiment: Antibacterial activity against Pseudomonas aeruginosa PAO1 horboring yaaA mutant gene assessed as viable bacterial count at 4 times MIC after 24 hrs by Etest; format: functional, organism-based
Pseudomonas aeruginosa [9] = experiment: Antibacterial activity against Pseudomonas aeruginosa PAO1 horboring gabD mutant gene assessed as viable bacterial count at 4 times MIC after 24 hrs by Etest; format: functional, organism-based
Pseudomonas aeruginosa [10] = experiment: Antibacterial activity against Pseudomonas aeruginosa PAO1 horboring mmsA mutant gene assessed as viable bacterial count at 8 times MIC after 48 hrs by Etest; format: functional, organism-based
Pseudomonas aeruginosa [11] = experiment: Antibacterial activity against Pseudomonas aeruginosa PAO1 horboring yaaA mutant gene assessed as viable bacterial count at 8 times MIC after 48 hrs by Etest; format: functional, organism-based
Pseudomonas aeruginosa [12] = experiment: Antibacterial activity against Pseudomonas aeruginosa PAO1 horboring mmsA mutant gene assessed as viable bacterial count at 4 times MIC after 24 hrs by Etest; format: functional, organism-based
Pseudomonas aeruginosa [13] = experiment: Antibacterial activity against wild type Pseudomonas aeruginosa PAK assessed as viable bacterial count at 0.5 times MIC after 48 hrs by Etest; format: functional, organism-based
Pseudomonas aeruginosa [14] = experiment: Antibacterial activity against Pseudomonas aeruginosa PAO1 horboring gabD mutant gene assessed as viable bacterial count at 8 times MIC after 48 hrs by Etest; format: functional, organism-based

Row | Molecule | MIC (Pseudomonas aeruginosa [1]) | MIC (Pseudomonas aeruginosa [2]) | MIC (Pseudomonas aeruginosa [3]) | MIC (Pseudomonas aeruginosa [4]) | MIC (Pseudomonas aeruginosa [5]) | MIC (Pseudomonas aeruginosa [6]) | MIC (Pseudomonas aeruginosa [7]) | Activity (Pseudomonas aeruginosa [8]) | Activity (Pseudomonas aeruginosa [9]) | Activity (Pseudomonas aeruginosa [10]) | Activity (Pseudomonas aeruginosa [11]) | Activity (Pseudomonas aeruginosa [12]) | Activity (Pseudomonas aeruginosa [13]) | Activity (Pseudomonas aeruginosa [14])
1 | C[C@@H](O)[C@H]1C(=O)N2C(C(=O)O)=C(SCCNC=N)C[C@H]12 [IMIPENEM ANHYDROUS] | 1 µg/mL (≈ 3.34 µM) | 4 µg/mL (≈ 13.4 µM) | 4 µg/mL (≈ 13.4 µM) | 1.5 µg/mL (≈ 5.01 µM) | 2 µg/mL (≈ 6.68 µM) | 1.5 µg/mL (≈ 5.01 µM) | 4 µg/mL (≈ 13.4 µM) | – | – | – | – | – | – | –
2 | GENTAMICIN | 2 µg/mL | 2 µg/mL | 3 µg/mL | 3 µg/mL | 3 µg/mL | 3 µg/mL | 3 µg/mL | – | – | – | – | – | – | –
3 | NC[C@H]1O[C@H](O[C@H]2[C@H](O)[C@@H](O[C@H]3O[C@H](CO)[C@@H](O)[C@H](N)[C@H]3O)[C@H](N)C[C@@H]2N)[C@H](N)C[C@@H]1O [TOBRAMYCIN] | 1.5 µg/mL (≈ 3.21 µM) | 2 µg/mL (≈ 4.28 µM) | 2 µg/mL (≈ 4.28 µM) | 2 µg/mL (≈ 4.28 µM) | 2 µg/mL (≈ 4.28 µM) | 2 µg/mL (≈ 4.28 µM) | 2 µg/mL (≈ 4.28 µM) | – | – | – | – | – | – | –
4 | CC(C)(O/N=C(\C(=O)N[C@@H]1C(=O)N2C(C(=O)[O-])=C(C[n+]3ccccc3)CS[C@H]12)c1csc(N)n1)C(=O)O [CEFTAZIDIME] | 1 µg/mL (≈ 1.83 µM) | 1 µg/mL (≈ 1.83 µM) | 1 µg/mL (≈ 1.83 µM) | 1 µg/mL (≈ 1.83 µM) | 0.75 µg/mL (≈ 1.37 µM) | 1 µg/mL (≈ 1.83 µM) | 1.5 µg/mL (≈ 2.74 µM) | – | – | – | – | – | – | –
5 | C[C@H]1COc2c(N3CCN(C)CC3)c(F)cc3c(=O)c(C(=O)O)cn1c23.C[C@H]1COc2c(N3CCN(C)CC3)c(F)cc3c(=O)c(C(=O)O)cn1c23.O [LEVOFLOXACIN] | 0.25 µg/mL | – | 0.5 µg/mL | 0.25 µg/mL | 0.25 µg/mL | 0.25 µg/mL | – | – | – | – | – | – | – | –
6 | O=C(O)c1cn(C2CC2)c2cc(N3CCNCC3)c(F)cc2c1=O [CIPROFLOXACIN] | – | – | 0.19 µg/mL (≈ 0.573 µM) | – | – | – | – | Active | inactive | Active | Active | inactive | inactive | Active
